Reference: patent publication US8415469B2, “Compounds and methods for kinase modulation, and indications therefor” (Plexxikon Inc., priority 2005, dated 2013)
One block for each compound: values may come before it.

Assays:
Assay type in all cases: biochemical
Irak4 = biological target: T1, Irak4 (Homo sapiens, UniProt Q9NWZ3); assay: Z'-Lyte FRET kinase assay (Invitrogen), Irak4; conditions: read-out: IC50, activity toward kinase Irak4
T1 construct: purchased Invitrogen (assay run by Invitrogen)
T1 sequence (Q9NWZ3 1-460): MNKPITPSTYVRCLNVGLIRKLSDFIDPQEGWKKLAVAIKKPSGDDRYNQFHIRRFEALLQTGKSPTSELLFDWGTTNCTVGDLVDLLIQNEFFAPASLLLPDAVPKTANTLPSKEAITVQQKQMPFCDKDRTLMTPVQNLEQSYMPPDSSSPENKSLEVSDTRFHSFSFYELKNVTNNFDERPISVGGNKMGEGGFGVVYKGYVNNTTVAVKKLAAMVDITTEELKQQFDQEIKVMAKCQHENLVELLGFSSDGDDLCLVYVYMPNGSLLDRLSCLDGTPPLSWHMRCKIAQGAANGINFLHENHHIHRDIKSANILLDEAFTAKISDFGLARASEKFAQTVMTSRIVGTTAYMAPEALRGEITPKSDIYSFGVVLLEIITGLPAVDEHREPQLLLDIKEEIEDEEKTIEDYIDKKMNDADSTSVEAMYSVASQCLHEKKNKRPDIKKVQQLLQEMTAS
From the text: (§1) The effect of potential modulators of kinase activity can be measured in a variety of different assays known in the art. For example, direct radiometric, indirect FRET or AlphaScreen assays may be used to assess the level of phosphorylation of a substrate in the presence of test compounds in order to determine the inhibitory affect of the compound on the kinase. Invitrogen (Carlsbad, Calif.) uses a FRET based assay for Btk, EGFR, EphB2, Flt3, lrak4, Kdr, MAP2K1, MAPKAPK2, PDGFRB, PKC theta, Stk6 and Yes. For these assays, compounds of the invention were screened by Invitrogen using Z′-Lyte™ kinase assay.
Briefly, the Invitrogen kinase assay involves use of a specific peptide substrate optimized for each kinase, containing a fluorophore at each end that make up the FRET pair. The peptide sensitivity to proteolytic cleavage depends on phosphorylation of the peptide. Non-phosphorylated peptide is cleaved by a protease while peptide phosphorylated by the kinase is not cleaved. Cleavage of the peptide disrupts the FRET between the donor (coumarin) and acceptor (fluorescein) fluorophores, resulting in an increase in the ratio of donor emission to acceptor emission. The emission ratio of coumarin to fluorescein is used to assess the reaction progress. The extent of phosphorylation is determined from the emission ratio, which is low when the kinase is active (phosphorylated peptide is not cleaved, FRET pair connected) or higher for inhibited kinase (non-phosphorylated peptide is cleaved, FRET pair separated). Thus, the assay involves a kinase reaction in the presence of varying concentrations of a given compound, a development reaction with site specific protease, and detection of the fluorescent emission ratio of coumarin and fluorscein. […] Reaction conditions for each kinase are determined to provide optimal reaction times, incubation temperature, kinase and ATP concentrations. Test samples are made up in 1× kinase buffer (50 mM HEPES pH 7.5, 50 mM MgCl2, 5 mM EGTA, 0.05% BRIJ-35) and compound at desired concentration prepared in DMSO such that the final DMSO is 1%. […] Typically, assay plates are prepared to 10 μl final volume per sample, adding 2.5 μl of compound at 4× the desired concentration in 4% DMSO (serial dilution of compound provides concentration curve), 5 μl of the desired kinase mixed with Z′-LYTE™ peptide substrate (2× in 2× kinase buffer, final peptide at 2 μM), and 2.5 μl of 4×ATP solution. All kinase except for MAP2K1 were at 10 μM ATP in the kinase reaction, while MAP2K1 was at 100 μM. Samples are mixed and the kinase reaction is incubated 1 hour at room temperature, after which 5 μl of development solution is added and mixed. After incubation for another 1 hour at room temperature, 5 μl of stop reagent is added to each sample and mixed. The fluorescence signals are measured to determine the emission ratio.

p38 = biological target: T2, p38 (Homo sapiens, UniProt Q16539); assay: AlphaScreen kinase assay, p38; conditions: read-out: IC50, activity toward kinase p38
T2 construct: P4292.pET15S P38A M1-S360-X MKK6DD; His6 with thrombin site (N); made in house
T2 sequence (Q16539 with tags, fused parts or gaps): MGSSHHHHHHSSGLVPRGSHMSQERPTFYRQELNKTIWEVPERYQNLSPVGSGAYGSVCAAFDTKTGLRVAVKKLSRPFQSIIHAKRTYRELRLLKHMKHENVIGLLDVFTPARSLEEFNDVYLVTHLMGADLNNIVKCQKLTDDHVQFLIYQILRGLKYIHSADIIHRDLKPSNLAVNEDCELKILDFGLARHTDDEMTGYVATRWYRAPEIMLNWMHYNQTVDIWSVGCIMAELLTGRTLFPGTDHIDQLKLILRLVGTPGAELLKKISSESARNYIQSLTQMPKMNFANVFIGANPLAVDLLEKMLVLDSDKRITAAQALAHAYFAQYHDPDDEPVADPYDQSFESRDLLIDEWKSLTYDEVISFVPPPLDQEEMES

Pim1 = biological target: T3, Pim1 (Homo sapiens, UniProt P11309); assay: AlphaScreen kinase assay, Pim1; conditions: read-out: IC50, activity toward kinase Pim1
T3 construct: P1215.pET29SRI PIM1 E29-K313 HIS WT; made in house
T3 sequence (P11309 with tags, fused parts or gaps): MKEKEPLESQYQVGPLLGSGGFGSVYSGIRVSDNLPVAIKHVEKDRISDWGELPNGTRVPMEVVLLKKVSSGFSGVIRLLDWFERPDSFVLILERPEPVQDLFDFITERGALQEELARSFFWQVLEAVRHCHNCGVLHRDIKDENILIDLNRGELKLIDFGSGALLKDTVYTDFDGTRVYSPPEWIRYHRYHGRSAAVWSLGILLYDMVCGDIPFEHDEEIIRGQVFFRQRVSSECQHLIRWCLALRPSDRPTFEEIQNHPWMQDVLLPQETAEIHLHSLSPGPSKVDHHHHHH
From the text: (§2) AlphaScreen assay was used to screen additional kinases. The assay is similarly dependent on the phosphorylation of a peptide substrate. In this assay, an antibody that recognizes phosphorylated substrate is bound to an acceptor bead. The peptide substrate is attached to biotin, which binds to a donor head that contains streptavidin. Thus phosphorylated substrate is bound by antibody and streptavidin, bringing the donor and acceptor heads into close proximity when kinase is not inhibited. The donor produces singlet oxygen which results in emission from the acceptor when they are in close proximity. Conversely, when kinase is inhibited, the donor and acceptor beads are not associated and the emission from the acceptor is reduced.
(§3) AlphaScreen assays were done using compounds dissolved in DMSO to a concentration of 20 mM. The compounds were diluted accordingly to the desired final concentrations in each sample well, using 1:3 serial dilution for a total of 8 concentration points.

PDGFRB = biological target: T4, PDGFRB (Homo sapiens, UniProt P09619); assay: Z'-Lyte FRET kinase assay (Invitrogen), PDGFRB; conditions: read-out: IC50, activity toward kinase PDGFRB
T4 construct: purchased Invitrogen (Carlsbad, Calif.), screening service
T4 sequence (P09619 33-1106): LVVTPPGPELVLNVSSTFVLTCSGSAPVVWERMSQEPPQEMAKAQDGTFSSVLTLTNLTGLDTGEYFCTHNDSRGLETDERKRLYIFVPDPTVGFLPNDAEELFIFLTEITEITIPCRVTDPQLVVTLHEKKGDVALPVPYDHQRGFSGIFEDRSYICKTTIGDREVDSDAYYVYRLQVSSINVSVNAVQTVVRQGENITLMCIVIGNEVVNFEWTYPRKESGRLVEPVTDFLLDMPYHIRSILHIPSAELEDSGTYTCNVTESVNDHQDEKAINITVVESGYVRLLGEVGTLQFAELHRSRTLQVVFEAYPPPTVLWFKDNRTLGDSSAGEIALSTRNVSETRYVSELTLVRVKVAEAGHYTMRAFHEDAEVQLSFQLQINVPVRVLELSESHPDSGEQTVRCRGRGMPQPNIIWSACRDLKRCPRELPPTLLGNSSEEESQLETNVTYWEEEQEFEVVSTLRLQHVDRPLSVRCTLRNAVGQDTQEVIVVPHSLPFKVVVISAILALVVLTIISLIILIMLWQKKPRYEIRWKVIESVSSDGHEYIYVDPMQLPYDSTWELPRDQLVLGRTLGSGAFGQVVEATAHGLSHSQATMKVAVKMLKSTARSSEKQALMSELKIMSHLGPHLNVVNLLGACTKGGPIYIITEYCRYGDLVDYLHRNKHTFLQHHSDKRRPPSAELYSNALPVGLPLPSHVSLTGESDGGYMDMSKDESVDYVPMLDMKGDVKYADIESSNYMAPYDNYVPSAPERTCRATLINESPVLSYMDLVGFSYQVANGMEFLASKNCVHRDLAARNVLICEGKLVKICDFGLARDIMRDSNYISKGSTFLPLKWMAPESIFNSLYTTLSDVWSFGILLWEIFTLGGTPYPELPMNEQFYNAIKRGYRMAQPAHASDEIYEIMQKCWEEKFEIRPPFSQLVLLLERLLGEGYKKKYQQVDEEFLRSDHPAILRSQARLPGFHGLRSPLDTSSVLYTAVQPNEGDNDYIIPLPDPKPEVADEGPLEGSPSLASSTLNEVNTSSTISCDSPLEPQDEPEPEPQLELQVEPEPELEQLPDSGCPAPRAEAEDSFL
From the text: as §1
Briefly, the Invitrogen kinase assay involves use of a specific peptide substrate optimized for each kinase, containing a fluorophore at each end that make up the FRET pair. The peptide sensitivity to proteolytic cleavage depends on phosphorylation of the peptide. […] The extent of phosphorylation is determined from the emission ratio, which is low when the kinase is active (phosphorylated peptide is not cleaved, FRET pair connected) or higher for inhibited kinase (non-phosphorylated peptide is cleaved, FRET pair separated). […] Reaction conditions for each kinase are determined to provide optimal reaction times, incubation temperature, kinase and ATP concentrations. […] The fluorescence signals are measured to determine the emission ratio.

EphB4 = EphB4 (Homo sapiens, UniProt P54760); assay: AlphaScreen kinase assay, EphB4; conditions: read-out: IC50, activity toward kinase EphB4
From the text: as §2, §3

TrkA = TrkA (Homo sapiens, UniProt P04629); assay: AlphaScreen kinase assay, TrkA; conditions: read-out: IC50, activity toward kinase TrkA
Sequence of TrkA (P04629 33-796): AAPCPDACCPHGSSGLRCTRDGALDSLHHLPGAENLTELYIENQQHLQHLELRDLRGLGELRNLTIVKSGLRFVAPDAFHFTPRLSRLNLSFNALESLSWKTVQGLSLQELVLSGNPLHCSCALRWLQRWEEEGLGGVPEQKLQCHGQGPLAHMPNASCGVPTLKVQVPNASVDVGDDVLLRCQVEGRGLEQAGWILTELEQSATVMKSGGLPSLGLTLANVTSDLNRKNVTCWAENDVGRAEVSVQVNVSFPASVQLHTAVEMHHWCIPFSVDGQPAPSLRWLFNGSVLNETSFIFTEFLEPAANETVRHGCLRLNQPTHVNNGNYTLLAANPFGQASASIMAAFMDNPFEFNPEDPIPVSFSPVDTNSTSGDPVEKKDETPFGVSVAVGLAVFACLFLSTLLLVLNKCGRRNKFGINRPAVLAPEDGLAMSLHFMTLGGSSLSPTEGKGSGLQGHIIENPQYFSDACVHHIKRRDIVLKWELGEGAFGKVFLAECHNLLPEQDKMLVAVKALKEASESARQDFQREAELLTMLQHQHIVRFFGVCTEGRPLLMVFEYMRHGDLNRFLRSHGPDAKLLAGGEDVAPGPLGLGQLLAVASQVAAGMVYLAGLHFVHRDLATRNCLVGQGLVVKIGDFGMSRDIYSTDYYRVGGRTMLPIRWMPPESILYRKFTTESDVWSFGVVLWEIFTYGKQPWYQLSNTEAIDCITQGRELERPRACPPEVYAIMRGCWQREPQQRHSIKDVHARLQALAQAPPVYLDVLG
From the text: as §2, §3

EphA2 = EphA2 (Homo sapiens, UniProt P29317); assay: AlphaScreen kinase assay, EphA2; conditions: read-out: IC50, activity toward kinase EphA2
Sequence of EphA2 (P29317 24-976): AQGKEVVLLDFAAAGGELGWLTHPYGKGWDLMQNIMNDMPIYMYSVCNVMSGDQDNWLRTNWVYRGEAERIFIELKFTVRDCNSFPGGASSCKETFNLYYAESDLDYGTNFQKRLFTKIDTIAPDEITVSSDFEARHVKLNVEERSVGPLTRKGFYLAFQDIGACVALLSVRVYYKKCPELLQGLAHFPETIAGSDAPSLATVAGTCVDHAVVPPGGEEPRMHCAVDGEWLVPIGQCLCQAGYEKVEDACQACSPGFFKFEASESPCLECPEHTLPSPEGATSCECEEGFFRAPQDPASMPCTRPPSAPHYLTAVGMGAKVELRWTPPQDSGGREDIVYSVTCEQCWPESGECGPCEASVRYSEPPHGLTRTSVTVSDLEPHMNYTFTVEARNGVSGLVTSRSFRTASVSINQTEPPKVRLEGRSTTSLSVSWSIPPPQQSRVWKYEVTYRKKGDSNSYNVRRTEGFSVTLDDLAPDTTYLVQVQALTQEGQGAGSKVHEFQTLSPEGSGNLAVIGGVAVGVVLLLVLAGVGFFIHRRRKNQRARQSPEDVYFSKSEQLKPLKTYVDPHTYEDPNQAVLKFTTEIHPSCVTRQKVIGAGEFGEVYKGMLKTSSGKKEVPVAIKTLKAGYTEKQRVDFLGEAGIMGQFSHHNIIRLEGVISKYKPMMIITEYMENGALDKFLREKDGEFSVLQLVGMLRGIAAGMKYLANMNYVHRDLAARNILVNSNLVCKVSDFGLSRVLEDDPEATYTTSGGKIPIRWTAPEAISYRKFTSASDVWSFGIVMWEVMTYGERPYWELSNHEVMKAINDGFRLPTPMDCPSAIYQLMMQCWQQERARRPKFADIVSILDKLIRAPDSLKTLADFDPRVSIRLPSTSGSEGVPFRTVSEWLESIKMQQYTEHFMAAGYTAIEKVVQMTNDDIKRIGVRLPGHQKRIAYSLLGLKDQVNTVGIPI
From the text: as §2, §3

MLK1 = MLK1 (Homo sapiens, UniProt P80192); assay: AlphaScreen kinase assay, MLK1; conditions: read-out: IC50, activity toward kinase MLK1
Sequence of MLK1 (P80192 whole entry): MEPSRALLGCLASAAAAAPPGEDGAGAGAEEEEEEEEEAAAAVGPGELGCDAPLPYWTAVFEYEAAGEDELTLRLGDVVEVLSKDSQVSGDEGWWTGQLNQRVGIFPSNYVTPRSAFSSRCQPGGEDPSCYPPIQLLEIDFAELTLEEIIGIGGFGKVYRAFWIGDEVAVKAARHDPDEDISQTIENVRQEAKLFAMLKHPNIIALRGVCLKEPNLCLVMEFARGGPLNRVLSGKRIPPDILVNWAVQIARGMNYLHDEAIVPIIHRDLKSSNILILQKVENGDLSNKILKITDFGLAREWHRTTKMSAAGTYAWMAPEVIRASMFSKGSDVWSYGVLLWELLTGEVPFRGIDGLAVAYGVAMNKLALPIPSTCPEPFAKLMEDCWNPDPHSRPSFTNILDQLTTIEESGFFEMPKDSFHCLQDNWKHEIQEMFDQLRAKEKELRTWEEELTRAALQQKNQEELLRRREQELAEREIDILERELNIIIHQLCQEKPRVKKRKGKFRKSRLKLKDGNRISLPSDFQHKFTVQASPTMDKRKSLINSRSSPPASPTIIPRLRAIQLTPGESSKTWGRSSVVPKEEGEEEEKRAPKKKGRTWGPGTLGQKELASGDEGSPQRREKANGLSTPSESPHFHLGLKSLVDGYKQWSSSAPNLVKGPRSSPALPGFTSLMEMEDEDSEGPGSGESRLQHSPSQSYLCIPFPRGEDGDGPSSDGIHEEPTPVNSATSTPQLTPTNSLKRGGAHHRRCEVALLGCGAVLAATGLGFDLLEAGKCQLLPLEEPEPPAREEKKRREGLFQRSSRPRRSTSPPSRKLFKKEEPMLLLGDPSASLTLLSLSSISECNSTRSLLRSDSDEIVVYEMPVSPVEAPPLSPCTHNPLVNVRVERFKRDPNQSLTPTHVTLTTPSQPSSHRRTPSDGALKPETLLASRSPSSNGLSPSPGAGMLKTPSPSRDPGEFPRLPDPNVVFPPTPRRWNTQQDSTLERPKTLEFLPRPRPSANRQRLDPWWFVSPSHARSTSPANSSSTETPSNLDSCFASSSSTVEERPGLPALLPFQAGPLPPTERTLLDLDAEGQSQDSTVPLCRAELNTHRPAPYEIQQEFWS
From the text: as §2, §3

IC50 (Irak4): ≤ 10 µM
SMILES: Nc1cccc(-c2cnc3[nH]cc(C(=O)c4cc(O)ccc4F)c3c2)c1 [Compound P-0002]

IC50 (p38): ≤ 10 µM
SMILES: O=C(O)/C=C/c1cccc(-c2cnc3[nH]cc(C(=O)c4cc(O)ccc4F)c3c2)c1 [Compound P-0010]

IC50 (Irak4): ≤ 10 µM
SMILES: CS(=O)(=O)c1cccc(-c2cnc3[nH]cc(C(O)c4c(F)ccc(F)c4F)c3c2)c1 (stereo not drawn) [Compound P-0020]

IC50 (Pim1): ≤ 10 µM
SMILES: O=C(c1ccc(O)cc1)c1c[nH]c2ncc(-c3cccs3)cc12 [Compound P-0024, (4-Hydroxy-phenyl)-(5-thiophen-2-yl-1H-pyrrolo[2,3-b]pyridin-3-yl)-methanone]

IC50 (PDGFRB): ≤ 10 µM
SMILES: CCCS(=O)(=O)Nc1ccc(F)c(C(=O)c2c[nH]c3ncc(-c4cccnc4)cc23)c1F [Compound P-0088, Propane-1-sulfonic acid [2,4-difluoro-3-(5-pyridin-3-yl-1H-pyrrolo[2,3-b]pyridine-3-carbonyl)-phenyl]-amide]

IC50 (Pim1): ≤ 10 µM
SMILES: COc1ccc(F)c(C(=O)c2c[nH]c3ncc(-c4cccnc4)cc23)c1 [Compound P-0090]

IC50 (PDGFRB): ≤ 10 µM
SMILES: O=C(Nc1ccc(Cc2c[nH]c3ncccc23)cc1)Nc1cccc(C(F)(F)F)c1 [Compound P-0262, 1-[4-(1H-Pyrrolo[2,3-b]pyridin-3-ylmethyl)-phenyl]-3-(3-trifluoromethyl-phenyl)-urea]

IC50 (EphB4): ≤ 10 µM
IC50 (TrkA): ≤ 10 µM
SMILES: CCCS(=O)(=O)Nc1ccc(F)c(C(=O)c2c[nH]c3ncc(OC)cc23)c1F [Compound P-0806, Propane-1-sulfonic acid [2,4-difluoro-3-(5-methoxy-1H-pyrrolo[2,3-b]pyridine-3-carbonyl)-phenyl]-amide]

IC50 (EphA2): ≤ 10 µM
IC50 (EphB4): ≤ 10 µM
IC50 (MLK1): ≤ 10 µM
SMILES: COc1cccc(C(=O)c2c[nH]c3ncc(-c4cccc(NC(C)=O)c4)cc23)c1F [Compound P-1336, N-{3-[3-(2-Fluoro-3-methoxy-benzoyl)-1H-pyrrolo[2,3-b]pyridin-5-yl]-phenyl}-acetamide]

IC50 (EphA2): ≤ 10 µM
SMILES: OCCOc1ccc(F)c(Cc2c[nH]c3ncc(-c4cccnc4)cc23)c1F [Compound P-1394, 2-[2,4-Difluoro-3-(5-pyridin-3-yl-1H-pyrrolo[2,3-b]pyridin-3-ylmethyl)-phenoxy]-ethanol]

IC50 (MLK1): ≤ 10 µM
IC50 (TrkA): ≤ 10 µM
SMILES: COc1cc(OC)cc(C(=O)c2c[nH]c3ncc(-c4cccc(NS(C)(=O)=O)c4)cc23)c1 [Compound P-1426, N-{3-[3-(3,5-Dimethoxy-benzoyl)-1H-pyrrolo[2,3-b]pyridin-5-yl]-phenyl}-methanesulfonamide]
